Converted amounts (≈) assume the structure as drawn. Where two headings read alike, the source gives them in different places.
Assays:
[1] = Phase solubility study (apparent solubility of DIA and Rhe with ILs or HP-β-CD); assay type: physicochemical; conditions: 25 °C, aqueous with cosolvent or surfactant or cyclodextrin, thermodynamic from solid, read-out: saturation solubility
Protocol: The increase in the apparent solubility of both DIA and Rhe in the presence of the ILs was evaluated. Briefly, aqueous solutions of the ILs were prepared in the range of 0–200 mg/mL, and an excess of either DIA or Rhe was added to each vial. The samples were then incubated for 30 min at 25°C, and the undissolved drug was removed by centrifugation at […] for 15 min (Hettich Mikro 120 centrifuge). […] The drug concentration was measured by UV–Vis analysis. The DIA phase solubility study was also compared to the phase solubility study of DIA in the presence of HP-β-CD as a reference solubility/stability-enhancing excipient. […] The complexation K was calculated through Higuchi and Connors’ method, as previously reported.
The size distribution and zeta potential values of the ILs’ aggregates in aqueous solutions were evaluated by using a Zetasizer Nano ZS (Malvern) at 25 °C. The samples were prepared by adding an excess of either DIA or Rhe (5 mg/mL) to the aqueous IL solutions, incubating them for 30 min at 25 °C, and finally removing the excess drugs by centrifugation. […] In contrast, for PB solutions, the solutions were prepared in water, and […] of 100 mM pH 7 phosphate buffer was added per 1 mL of aqueous solution, directly in the cuvette, before the dynamic light scattering (DLS) analysis started. The concentrations of the solubilised drug were determined by UV–Vis analysis.

[2] = test system: P. aeruginosa ATCC 27853; assay: MIC determination (microdilution); assay type: cell-based, Pseudomonas aeruginosa
Protocol: (§1) A clinical isolate of S. aureus (W4) and the reference strain of P. aeruginosa ATCC 27853 were used in the study. For the preparation of stock cultures, bacterial strains were grown in Luria–Bertani broth (LB, Oxoid, Basingstoke, Hampshire, UK) until the late-log phase, subdivided into aliquots, and kept frozen at −80 °C until use. Identification and susceptibility testing of the S. aureus W4 strain were performed using MALDI-TOF (Bruker Daltonics, Bremen, Germany) and the BD Phoenix susceptibility testing system (BD, Milan, Italy), respectively.
(§2) The susceptibility of the bacterial strains to each of the tested compounds was assessed in terms of MIC values according to the standard microdilution method (Clinical and Laboratory Standards Institute–CLSI, 2018), with some modifications. Briefly, the bacteria were grown in LB broth until the exponential growth phase and then diluted in the same medium to reach a final density of 5 × 10^6 CFU/mL. A volume of 10 μL of the bacterial suspensions was added to 90 μL of LB in a 96-well plate in the absence (viability control) or presence of the test compound at different concentrations.

[3] = test system: S. aureus (clinical isolate W4); assay: MIC determination (microdilution); assay type: cell-based, Staphylococcus aureus
Protocol: as §1, §2

[4] = test system: S. aureus W4; assay: Biofilm inhibition assay (crystal violet); assay type: cell-based, Staphylococcus aureus; conditions: 12.5 μg/mL
Protocol: (§3) After overnight growth in LB, cultures of P. aeruginosa ATCC 27853 and S. aureus W4 were diluted 1:100 in LB or in 50% tryptone soy broth (TSB, Oxoid) supplemented with 0.25% glucose (Sigma), respectively. The bacterial suspensions were dispensed into flat-bottomed polystyrene 96-well microplates (Corning Costar, Lowell, MA, USA) in the presence of sub-MIC concentrations of Rhe and DIA (3.12, 6.25, and 12.5 μg/mL). A sample containing 0.8 DMSO % (corresponding to the highest concentration of DMSO tested) was used as a control. The microplates were incubated statically at 37 °C for 24 h, and the biofilm biomass was estimated by CV (Sigma-Aldrich) staining assay, as previously described.

[5] = test system: BALB/3T3 clone A31 fibroblast cells; assay: Cytotoxicity screening (WST-1); assay type: cell-based, murine; conditions: Mus musculus, 4 h incubation, read-out: IC50 of cell viability
Protocol: BALB/3T3 clone A31 fibroblast cells were grown in Dulbecco’s Modified Eagle Medium (DMEM), supplemented with 2 mM L-glutamine, 1% penicillin/streptomycin, and 10% bovine calf serum. Cells were grown in a CO2 incubator (Heracell 150i series) at 37 °C and 5% CO2, with cells sub-cultured at 80–90% confluency. The cell monolayers were rinsed with PBS and treated with trypsin–EDTA to detach the cells before their resuspension in fresh media. A subconfluent monolayer of BALB/3T3 clone A31 fibroblast cells was trypsinised, centrifuged at 1000 rpm for 5 min, resuspended in growth medium, and counted.
A cytotoxicity screening was carried out for both ILs (range […]), as well as DIA and Rhe (0.5–200 mg/mL). Briefly, BALB/3T3 clone A31 fibroblast cells were seeded in each well of 96-well plates at a seeding density of 6 × 10^3 cells/well for 24 h, until 60–70% confluence was reached. After 24 h, the medium was then removed from each well and replaced with DMEM containing the samples.
After 4 h of incubation, the media were removed, replaced with fresh medium containing 10% WST-1 reagent solution, and maintained for 4 h at 37° C with 5% CO2. Afterwards, formazan dye absorbance was quantified at 450 nm with the reference wavelength at 655 nm by using a multilabel reader (BioTek 800/TS, Thermo Scientific).

[6] = test system: P. aeruginosa ATCC 27853; assay: Biofilm inhibition assay (crystal violet); assay type: cell-based, Pseudomonas aeruginosa; conditions: any of the concentrations tested (3.12, 6.25, 12.5 μg/mL)
Protocol: as §3

[7] = test system: murine fibroblast NIH 3T3 cells; parameters: method as in PMID 20302969, doi:10.1039/c0gc00813c; conditions: ref [29],[30]; cited from earlier work

Molecule	solubility at 30 min ([1]; in Bet6 solutions)	solubility at 30 min ([1]; in Carn6 solutions)	MIC ([2]; Pseudomonas aeruginosa, ATCC27853, planktonic cells, 24 h, 37 °C)	antibacterial effect ([2]; in words (discussion))	MIC ([3]; Staphylococcus aureus, planktonic cells, 24 h, 37 °C)	antibacterial effect ([3]; in words (discussion))	biofilm formation (CV staining, OD 570 nm) [4]	IC50 [5]	biofilm formation (CV staining, OD 570 nm), difference vs control [6]	IC50 [7]
O=C(O)c1cc(O)c2c(c1)C(=O)c1cccc(O)c1C2=O [Rhe, rhein]	220 µg/mL (≈ 774 µM)	130 µg/mL (≈ 457 µM)	> 50 µg/mL	inactive	50 µg/mL (≈ 176 µM)	exert antibacterial effects	statistically significant reduction in biofilm formation	6.7 µg/mL (≈ 23.6 µM)	not statistically significant	–
benzalkonium chloride [Bak]	–	–	–	–	–	–	–	–	–	9.4 µg/mL

From article PMC9916883, “Betaine- and L-Carnitine-Based Ionic Liquids as Solubilising and Stabilising Agents for the Formulation of Antimicrobial Eye Drops Containing Diacerein” (International Journal of Molecular Sciences, 2023)
